{"source": "a melting point compilation (Tetko et al.)"}
{"details": "a range is the spread between reports", "units": {"melting point": "°C"}}
{"smiles": "O=S1(=O)CC=CC1", "melting point": "64.5 to 65"}
{"smiles": "O=C(O)c1ccccc1-c1ccccc1C(=O)O", "melting point": "229 to 234"}
{"smiles": "Cc1cncnc1", "melting point": "30 to 32"}
{"smiles": "O=C(O)c1cccc([N+](=O)[O-])c1Cl", "melting point": "181 to 184"}
{"smiles": "O=C(O)COc1ccccc1C(=O)O", "melting point": "189 to 191"}
{"smiles": "CC(C)(C)c1cc(O)c(C(C)(C)C)cc1O", "melting point": "216 to 218"}
{"smiles": "COc1cc(OC)cc(OC)c1", "melting point": "52 to 54.5"}
{"smiles": "CC(=O)CC(C)C", "melting point": "-84 to -80"}
{"smiles": "OCCOc1ccccc1", "melting point": "12 to 14"}
{"smiles": "CCCCC(O)CCC", "note": "(stereo unspecified)", "melting point": "-41 to -40.7"}
{"smiles": "CC(=O)Nc1ccccc1C", "melting point": "110 to 111"}
{"smiles": "Cc1ccc(C(C)C)cc1", "melting point": "-68.9 to -68"}
{"smiles": "Nc1nc(N)nc(-c2ccccc2)n1", "melting point": "226 to 227"}
{"smiles": "C=CC(=O)NC(C)(C)CC(C)=O", "melting point": "55 to 57.5"}
{"smiles": "CC(=O)OCCCCOC(C)=O", "melting point": "12 to 13"}
{"smiles": "CC(Cl)Cl", "melting point": "-97 to -96.9"}
{"smiles": "N#Cc1nn(-c2c(Cl)cc(C(F)(F)F)cc2Cl)c(N)c1S(=O)C(F)(F)F", "note": "(stereo unspecified)", "melting point": "199 to 200"}
{"smiles": "CC(Br)C(Br)C(=O)O", "note": "(stereo unspecified)", "melting point": "85 to 87"}
{"smiles": "O=C(NNc1ccccc1)NNc1ccccc1", "melting point": "170 to 173"}
{"smiles": "C=CCC(=O)O", "melting point": "-39 to -35"}
{"smiles": "Oc1ccccc1-c1nc2ccccc2s1", "melting point": "131 to 132"}
{"smiles": "CCC(=O)OC", "melting point": "-88 to -87.5"}
{"smiles": "CCOC(=O)C(C)C", "melting point": "-88.2 to -88"}
{"smiles": "CC12CCC3c4ccc(O)cc4CCC3C1CCC2O", "note": "(stereo unspecified)", "melting point": "173 to 178"}
{"smiles": "COC(=O)c1ccccc1C(=O)OC", "melting point": "2 to 5.5"}
{"smiles": "Fc1cccc2ccccc12", "melting point": "-13 to -9"}
{"smiles": "Cc1ccccc1", "melting point": "-95 to -93"}
{"smiles": "CCC(C)N", "note": "(stereo unspecified)", "melting point": "-105 to -104"}
{"smiles": "c1ccc2n[nH]nc2c1", "melting point": 97}
{"smiles": "O=S(=O)(Cc1ccccc1)c1ccccc1", "melting point": "146 to 149"}
{"smiles": "CC(C)c1ccc(C(=O)O)cc1", "melting point": "118 to 119"}
{"smiles": "CCCCOc1ccccc1", "melting point": "-19.4 to -19"}
{"smiles": "Cc1ccc(S(=O)(=O)NC2CCCCC2)cc1", "melting point": "84.5 to 88"}
{"smiles": "CCOC(=O)C(O)(c1ccccc1)c1ccccc1", "melting point": "30 to 34"}
{"smiles": "O=C(O)Cc1ccccc1O", "melting point": "146 to 149"}
{"smiles": "ClCCCCCl", "melting point": "-38 to -37"}
{"smiles": "O=[N+]([O-])c1cccc(CBr)c1", "melting point": "58 to 59.3"}
{"smiles": "Nc1ccc(F)cc1", "melting point": "-2 to -0.8"}
{"smiles": "CC(=O)OCC(C(OC(C)=O)c1ccccc1)[N+](=O)[O-]", "note": "(stereo unspecified)", "melting point": "70 to 71"}
{"smiles": "COc1cc(C=CCO)ccc1O", "melting point": "74 to 76"}
{"smiles": "CCCCCC(C)(C)O", "melting point": "-50.4 to -50"}
{"smiles": "O=C(Cl)CCc1ccccc1", "melting point": "-7 to -2"}
{"smiles": "Nc1cccc(Br)c1", "melting point": "16 to 18.5"}
{"smiles": "O=Cc1ccccc1[N+](=O)[O-]", "melting point": "43.5 to 46"}
{"smiles": "Cc1cccc(N)c1C", "melting point": "2 to 3"}
{"smiles": "O=C1OCc2ccccc21", "melting point": "74 to 75"}
{"smiles": "Cc1ccc2[nH]cnc2c1", "melting point": "112 to 116"}
{"smiles": "CCCCCCCCCCCCI", "melting point": "-3 to 0.3"}
{"smiles": "C=CBr", "melting point": "-139 to -138"}
{"smiles": "C=CCCCCCCCCCO", "melting point": "-3 to -2"}
{"smiles": "O=C(C(=O)c1ccccc1)c1ccccc1", "melting point": "94.5 to 95"}
{"smiles": "NC(=O)c1ccc(N)cc1", "melting point": "182 to 183"}
{"smiles": "Cn1ccc(=O)n(C)c1=O", "melting point": "120 to 121"}
{"smiles": "O=Nc1ccccc1", "melting point": "65 to 68.5"}
{"smiles": "O/N=C\\c1ccccc1", "melting point": "35 to 36.5"}
{"smiles": "ClC(Cl)Cl", "melting point": "-63.6 to -63"}
{"smiles": "CCCCC(CC)COC(=O)c1ccccc1C(=O)OCC(CC)CCCC", "note": "(stereo unspecified)", "melting point": "-55 to -50"}
{"smiles": "CC(C)(C)c1ccc(Br)cc1", "melting point": "16 to 19"}
{"smiles": "Fc1cc(F)cc(F)c1", "melting point": "-6 to -5.5"}
{"smiles": "O=c1cc(-c2ccccc2)oc2ccccc12", "melting point": "97 to 100"}
{"smiles": "CC(C)(C)c1cccc(O)c1", "melting point": "41 to 45"}
{"smiles": "Cc1ccc(C)c(C)c1C", "melting point": "-6.2 to -6"}
{"smiles": "CCC(C)(C)CC(C)C", "melting point": -113}
{"smiles": "O=C(O)c1ccc(C(F)(F)F)cc1", "melting point": "220 to 221"}
{"smiles": "O=C(O)c1ccc([N+](=O)[O-])o1", "melting point": "184 to 187"}
{"smiles": "CCCCCCCCN", "melting point": "-1 to 0"}
{"smiles": "Cc1cccc(C)c1Cl", "melting point": "-36 to -35"}
{"smiles": "Brc1cc2ccccc2c2ccccc12", "melting point": "64 to 64.5"}
{"smiles": "FC(F)(F)C(F)(F)F", "melting point": "-101 to -100"}
{"smiles": "O=Cc1cccc(I)c1", "melting point": "56 to 58"}
{"smiles": "CCSCC", "melting point": -104}
{"smiles": "Cc1cccc(C(=O)O)c1C", "melting point": "145 to 146"}
{"smiles": "CCCCCCS", "melting point": "-81 to -80"}
{"smiles": "O=C(O)CCSCCC(=O)O", "melting point": "129 to 131"}
{"smiles": "O=[N+]([O-])c1ccc(Cl)c([N+](=O)[O-])c1", "melting point": "50 to 53"}
{"smiles": "CCc1ccc(C(=O)O)cc1", "melting point": "112 to 113"}
{"smiles": "CCCCCc1cc(O)c2c(c1)OC(C)(C)c1ccc(C)cc1-2", "melting point": "76.5 to 77"}
{"smiles": "CCCCC", "melting point": -130}
{"smiles": "CCCCc1ccccc1", "melting point": "-88 to -87.9"}
{"smiles": "C1COCOC1", "melting point": "-45 to -42"}
{"smiles": "OCCCCCCO", "melting point": "42 to 45"}
{"smiles": "COc1cc(CC(=O)O)ccc1O", "melting point": "143 to 144"}
{"smiles": "C#C", "melting point": "-80.8 to -80.7"}
{"smiles": "C=CCN", "melting point": "-88.2 to -88"}
{"smiles": "CN(C)C(N)=O", "melting point": "180 to 184"}
{"smiles": "ClCc1ccc(Cl)cc1Cl", "melting point": "-3 to -2.6"}
